Consider 17 compounds from PMC4332636, “In Vitro and In Vivo Toxicity Profiling of Ammonium-Based Deep Eutectic Solvents” (PLoS ONE, 2015).

In brackets after ≈: the same amount, converted by molar mass. Like-named read-outs stand apart in the source and are kept apart here.

Data set [1] is described as follows: Acute toxicity (LD50) in ICR mice. Format: in vivo. The conditions noted are these: mouse, in vivo, oral, mortality within 14 days. As for the experimental part:
(§1) The acute toxicity of the compounds was evaluated using six Imprinting Control Region (ICR) mice per groups at 8 to 12 weeks of age, with an average body weight of 25.6 g. The animals were assigned equally into 4 groups labeled as vehicle (dH2O), high dose (20 g/kg), medium dose (10 g/kg) and low dose (5 g/kg) of the compounds. Prior to administration, the animals were fasted (food but not water) overnight and for 3 to 4 h after compounds administration to eliminate any food inside the gastrointestinal tract that might complicate absorption of the test substance. […] Animals were euthanized by CO2 asphyxiation on 15th day, and serum biochemical and histological (liver and kidney) parameters were determined following the standard method. The mortality of the mice were recorded within 14 days and used to calculate the LD50 for each compound. The mice used were housed in specific pathogen free facility at the University of Malaya. This work was designed to minimize animal suffering and number of animals used, and has been approved by the Faculty of Medicine Animal Care and Use Committee (FOMIACUC, Approval No: 2014-05-07/PHAR/R/CYL) at University of Malaya. The work was reported according to ARRIVE guideline.

Data set [2] has as its system human oral keratinocyte cell line (OKF6). Put plainly: MTT cell viability assay, OKF6. Format: cell-based. The note with it: OKF6, 48 h treatment. From the text: (§2) Human prostate cancer cell line (PC3), human malignant melanoma cell line (A375), human liver hepatocellular cell line (HepG2) and human colon adenocarcinoma cell line (HT29) were purchased from American Type Culture Collection (ATCC, Manassas, VA). The human breast cancer cell line (MCF-7) was acquired from Cell Lines Service (300273; Eppelheim, Germany), human oral keratinocyte cell line (OKF6) cells and carcinoma-derived human oral keratinocyte cells (H413) (Sigma-aldrich, Saint Louis, MO) were received from Professor Ian Charles Paterson. MCF-7, A375, HT29 and HepG2 cells were grown in Dulbecco’s Modified Eagle Medium (DMEM, Life Technologies, Inc., Rockville, MD) supplemented with 10% heat-inactivated fetal bovine serum (FBS, Sigma-Aldrich, St. Louis, MO), 1% penicillin and streptomycin. PC3 cells were grown in Roswell Park Memorial Institute medium (RPMI) supplemented with 10% heat-inactivated fetal bovine serum (FBS, Sigma-Aldrich, St. Louis, MO), 1% penicillin and streptomycin. OKF6 cells were grown in Keratinocyte Serum-Free Medium (KSFM), supplemented with 10% heat-inactivated fetal bovine serum (FBS, Sigma-Aldrich, St. Louis, MO), 1% penicillin and streptomycin. H413 cells were grown in Dulbecco's Modified Eagle Medium/Ham's F-12 (DMEM/F12) supplemented with 10% heat-inactivated fetal bovine serum (FBS, Sigma-Aldrich, St. Louis, MO), 1% penicillin and streptomycin. Cells were cultured in tissue culture flasks (Corning, USA) and were kept in an incubator at 37°C in a humidified atmosphere with 5% CO2. For experimental purposes, cells in exponential growth phase (approximately 70–80% confluency) were used.
(§3) The influence of the solvents was determined by MTT assay (Mosmann, 1983). MCF-7, A375, HT29, HepG2, PC3, OKF6 and H413 cells were treated for 48 h. On the first day, 1.0 × 10^4 cells were seeded into a 96-well plate for 24 h incubation assay. The cells were incubated overnight at 37°C in 5% CO2. On the next day, the cells were treated with a two-fold dilution series of six concentrations of the solvents, and then incubated at 37°C in 5% CO2 for 48 h. MTT solution (4,5-dimethylthiazol-2-yl-2,5-diphenyltetrazoliumbromide) was added at 2 mg/mL, and after 2 h of incubation at 37°C in 5% CO2, DMSO was added to dissolve the formazan crystals. The plates were then read in Chameleon multitechnology microplate reader (Hidex, Turku, Finland) at 570 nm absorbance. The cell viability percentage after exposure to the solvents for 48 h was calculated by the previously described method. The ratio of the absorbance of treated cells to the absorbance of DMSO-treated control cells was determined as cell viability (percentage).

Data set [3] has as its system human breast cancer cell line (MCF-7). Put plainly: MTT cell viability assay, MCF-7. Format: cell-based.
Excerpt: as §2, §3
In general terms: Tetrazolium assays rely on reduction of a dye to a coloured formazan, in cell work by metabolically active cells.

In data set [4] the test system is human prostate cancer cell line (PC3). Put plainly: MTT cell viability assay, PC3. Format: cell-based. The conditions noted are these: PC3, 48 h treatment.
Excerpt: as §2, §3

For data set [5], the system named is human malignant melanoma cell line (A375). Put plainly: MTT cell viability assay, A375. Format: cell-based.
Excerpt: as §2, §3

In data set [6] the test system is human liver hepatocellular cell line (HepG2). Put plainly: MTT cell viability assay, HepG2. The conditions noted are these: HepG2, 48 h treatment. Format: cell-based.
Excerpt: as §2, §3

Data set [7] deals with human colon adenocarcinoma cell line (HT29). Put plainly: MTT cell viability assay, HT29. Format: cell-based.
Excerpt: as §2, §3

Data set [8] concerns carcinoma-derived human oral keratinocyte cells (H413). Put plainly: MTT cell viability assay, H413. Format: cell-based. The note with it: H413, 48 h treatment.
Excerpt: as §2, §3

On the set-up of data set [9]: method as in PMID 18512987, PMID 19661306. The conditions noted are these: previously reported; cited from earlier work.
Data set [10] concerns HepG2. The conditions noted are these: on HepG2; cited from earlier work.
In data set [11] the test system is ICR mice. Put plainly: Acute toxicity (LD50) in ICR mice. Format: in vivo. The conditions noted are these: mortality within 14 days. As for the experimental part: as §1
A short description of data set [12]: ORAC antioxidant activity assay. As for the experimental part: Chemicals. Fluorescein sodium salt, AAPH (2,2′-Azobis(2-methylpropionamidine) dihydrochloride), quercetin dehydrate and trolox ((±)-6-Hydroxy-2,5,7,8-tetramethylchromane-2-carboxylic acid) were purchased from Sigma-Aldrich.
ORAC assay. ORAC (oxygen radical […]) assay was done based on procedures described previously with slight modifications. Compounds were diluted to a final concentration of 100μg/mL, with total reaction volume of 200μL. The assay was performed in a 96-well black microplate, with 25μL of samples, standard (trolox), blank (solvent/PBS) or positive control (quercetin). Subsequently, 150μL of working fluorescein solution was added to each well of assay plate. The plate was incubated at 37°C for at least 5 min. 25μL of AAPH working solution was then added to the wells, making up a total volume of 200μL. Fluorescence was recorded with excitation wavelength of 485nm and emission wavelength of 538nm. […] The values were expressed as trolox equivalent (TE).

As to `OCC(O)CO` [Pure Gl, glycerine], the LD50 (commonly the dose expected to kill half of the subjects tested) at 14 days in data set [1] came to 20600 ± 2160 mg/kg.

`OCC(O)CO` [Solvent 3, glycerine]: the IC50 – broadly, the concentration needed to halve the response being measured – in [2] amounted to 129.31 ± 8.23 µg/mL (≈ 1400 µM); in data set [3] (MCF-7, 48 h treatment) it was 74.73 ± 6.67 µg/mL (≈ 811 µM); in [4] it was 42.38 ± 3.96 µg/mL (≈ 460 µM); in [5] (A375, 48 h treatment), 67.65 ± 6.83 µg/mL (≈ 735 µM); in [6] it was 68.85 ± 11.74 µg/mL (≈ 748 µM); in data set [7] (HT29, 48 h treatment) it was 63.80 ± 7.23 µg/mL (≈ 693 µM). In addition, the IC50 in data set [8] stood at 101.02 ± 18.54 µg/mL (≈ 1100 µM).

As to 4-Hydroxy tamoxifen, the selectivity index entry in data set [9] was “less than 2”.

As for `OCCOCCOCCO` [Pure TEG, triethylene glycol], the LD50 at 14 days in data set [1] stood at 17000 ± 2040 mg/kg.

For the compound `OCCO` [Solvent 7, ethylene glycol], the IC50 in [2] stood at 75.62 ± 6.33 µg/mL (≈ 1220 µM); in [3] (MCF-7, 48 h treatment), 53.91 ± 6.17 µg/mL (≈ 869 µM); in data set [4] it was 32.48 ± 1.06 µg/mL (≈ 523 µM); in [5] (A375, 48 h treatment) it was 40.59 ± 5.27 µg/mL (≈ 654 µM); in data set [6], 44.33 ± 5.86 µg/mL (≈ 714 µM); in [7] (HT29, 48 h treatment), 43.72 ± 3.97 µg/mL (≈ 704 µM). The compound also showed an IC50 in [8] of 62.29 ± 8.94 µg/mL (≈ 1000 µM).

`C[N+](C)(C)CCO.[Cl-]` [Solvent 14, choline chloride]: the IC50 in data set [2] is 21.74 ± 1.04 µg/mL; in [3] (MCF-7, 48 h treatment), 12.23 ± 0.39 µg/mL; in data set [4], 10.18 ± 0.95 µg/mL; in data set [5] (A375, 48 h treatment), 12.75 ± 1.23 µg/mL; in [6], 14.60 ± 2.53 µg/mL; in data set [7] (HT29, 48 h treatment) it was 8.939 ± 1.43 µg/mL. For the same compound, the IC50 in data set [8] was determined as 21.49 ± 0.57 µg/mL.

Regarding `C[N+](C)(C)CCO.[Cl-]` [Solvent 2, choline chloride], the concentration for half-maximal inhibition (IC50) in data set [2] turned out to be 26.53 ± 1.97 µg/mL; in [3] (MCF-7, 48 h treatment), 8.95 ± 0.98 µg/mL; in [4] it was 11.94 ± 1.35 µg/mL; in data set [5] (A375, 48 h treatment), 7.584 ± 2.31 µg/mL; in data set [6], 14.26 ± 1.43 µg/mL; in data set [7] (HT29, 48 h treatment), 13.41 ± 1.73 µg/mL. The compound further registered an IC50 in [8] of 19.61 ± 4.19 µg/mL.

Regarding `NC(N)=O` [Solvent 11, urea], the IC50 in data set [2] came to 28.22 ± 1.05 µg/mL (≈ 470 µM); in data set [4], 23.09 ± 5.22 µg/mL (≈ 384 µM); in data set [5] (A375, 48 h treatment), 11.21 ± 1.38 µg/mL (≈ 187 µM); in data set [6] it was 24.23 ± 4.02 µg/mL (≈ 403 µM); in [7] (HT29, 48 h treatment), 13.93 ± 2.16 µg/mL (≈ 232 µM); in data set [8] it was 20.22 ± 1.69 µg/mL (≈ 337 µM).

Turning to `C[N+](C)(C)CCO.[Cl-]` [Solvent 6, choline chloride], the IC50 in data set [2] amounted to 24.58 ± 2.81 µg/mL; in data set [3] (MCF-7, 48 h treatment), 13.05 ± 2.09 µg/mL; in data set [4] it was 13.60 ± 2.94 µg/mL; in [5] (A375, 48 h treatment), 8.64 ± 1.75 µg/mL; in [6], 12.69 ± 1.63 µg/mL; in [7] (HT29, 48 h treatment) it was 11.79 ± 0.43 µg/mL. Moreover, the IC50 in data set [8] worked out at 21.84 ± 2.65 µg/mL.

In the case of `CCCCCCCCCC[N+](C)(C)CCCCCCCCCC` [[DDA][Sac], didecyldimethylammonium saccharinate], the IC50 in [10] was 4.8 µM.

On to `CC/C(=C(/CCN1CCCCC1)c1ccc(O)cc1)c1ccc(O)cc1` [piperidinyl-diethylstilbestrol], for which the selectivity index entry in [9] is recorded as “less than 2”.

Consider `OCCO` [Pure EG, ethylene glycol], for which, in [11], the LD50 was determined as 9.71 ± 1.95 g/kg.

On to `C[N+](C)(C)CCO.[Cl-]` [Solvent 10, choline chloride], for which the IC50 in data set [2] is 32.49 ± 3.41 µg/mL; in data set [3] (MCF-7, 48 h treatment), 12.51 ± 0.71 µg/mL; in data set [4], 28.88 ± 2.64 µg/mL; in data set [5] (A375, 48 h treatment), 10.54 ± 0.34 µg/mL; in data set [6] it was 25.99 ± 1.85 µg/mL; in [7] (HT29, 48 h treatment) it was 18.75 ± 1.65 µg/mL. In [8], this compound registered an IC50 of 38.41 ± 4.03 µg/mL.

Consider `NC(N)=O` [Pure U, urea], for which the LD50 in [11] is greater than 20 g/kg.

As to `O=c1c(O)c(-c2ccc(O)c(O)c2)oc2cc(O)cc(O)c12` [Quercetin, quercetin dehydrate], the “net AUC” value in data set [12] (compounds at 100μg/mL) came to 6353346. For the same compound, in [12] (trolox equivalent), the “mM of Trolox per 100μg/mL” value is 0.02141 mM of Trolox per 100μg/mL and the “μM of Trolox per 100μg/mL” value is listed as 21.411 μM of Trolox per 100μg/mL.

For `C[C@@]12CCC[C@]3(C)c4cc5c(O)ccc(O)c5cc4C(=O)[C@](O)(OC1)[C@H]23` [alisiaquinol], the selectivity index result in [9] was “less than 2”.

`OCCOCCOCCO` [Solvent 15, triethylene glycol]: the IC50 in [2] (Homo sapiens, read-out: IC50) worked out at 29.8 ± 1.45 µg/mL (≈ 198 µM); in [3] (Homo sapiens, MCF7, MCF-7, 48 h treatment, read-out: IC50), 18.3 ± 2.15 µg/mL (≈ 122 µM); in data set [4] (Homo sapiens, read-out: IC50), 23.1 ± 1.32 µg/mL (≈ 154 µM); in [5] (Homo sapiens, A-375, A375, 48 h treatment, read-out: IC50), 14.6 ± 0.64 µg/mL (≈ 97.4 µM); in data set [6] (Homo sapiens, read-out: IC50), 33.9 ± 4.94 µg/mL (≈ 226 µM); in [7] (Homo sapiens, HT-29, HT29, 48 h treatment, read-out: IC50), 20.2 ± 2.75 µg/mL (≈ 135 µM). Further, the IC50 in data set [8] (Homo sapiens, Keratinocyte, read-out: IC50) was 32.1 ± 3.1 µg/mL (≈ 214 µM).
